From patent publication US8623990B2, “Polyester resin composition” (FUJIFILM Corporation, priority 2010, dated 2014) come the findings set out here.

The series is described as follows: Measurement of pKa by absorption spectrum on addition of perchloric acid. The format is physicochemical. The note with it: in acetonitrile, 70% perchloric acid (solvent: acetic acid) added dropwise; proton adduct at nitrogen of triazine ring. The procedure:
Compound (2) was dissolved in acetonitrile to give an absorbance of 1 and to this solution, 70% perchloric acid (solvent: acetic acid) was added dropwise, thereby varying the pH. At this time, the absorption spectrum of solution was measured and based on the absorbance at λmax, the proportions of a triazine-free form and a proton adduct were calculated at each pH. From the point at which these values became equal, the pKa value was determined. Here, the triazine-free form indicates Compound (2) itself, and the proton adduct indicates a compound resulting from addition of a proton to the nitrogen atom of triazine ring of Compound (2). Compounds (21), (24), (120), (m-2), (m-3), (m-4), (m-21), (m-31), (m-20) and (m-1), and as comparative compounds, (Example A1) and (Example A2) were determined for the pKa value in the same manner. The absorption spectrum was measured using a spectrophotometer, UV-3600 (trade name), manufactured by Shimadzu Corporation, and the pH was measured using a pH meter, HM60G (trade name), manufactured by To a Denpa Kogyo. Incidentally, the absorbance is a value measured at the maximum absorption wavelength of each compound.

In the case of `CCC(C)CCCCCC(CCCC(C)CC)COC(=O)c1ccc(-c2nc(-c3ccccc3O)nc(-c3ccccc3O)n2)cc1` (stereo not shown) [(24)], the pKa was -5.
Regarding `CC(CCOC(=O)c1ccc(-c2nc(-c3ccccc3O)nc(-c3ccccc3O)n2)cc1)CC(C)(C)C` (stereo not shown) [(120)], the pKa was -5.
`Oc1ccccc1-c1nc(-c2cccc(Cl)c2)nc(-c2ccccc2O)n1` [(m-4)] displayed a pKa of -5.
In turn, `CCCCC(CC)COC(=O)c1ccc(-c2nc(-c3ccccc3O)nc(-c3ccccc3O)n2)cc1` (stereo not shown) [Compound (21)] showed a pKa of -5.
